One assay relates to ATF4. The experiment in a line: ATF4 expression inhibition assay (ATF4 5′UTR luciferase reporter, thapsigargin-stressed). Format: cell-based. The note with it: Homo sapiens, HEK-293T, read-out: ATF4 inhibition. How it is done:
The ATF4 reporter was prepared by fusing the human full length 5′UTR of ATF4 (NCBI Accession No. BC022088.2) upstream of the firefly luciferase coding sequence lacking the initiator methionine. The fused sequence was cloned into pLenti-EF1a-C-Myc-DDK-IRES-Puro cloning vector (Origen #PS100085) using standard methods.
HEK293T cells carrying the ATF4 luciferase reporter were plated on 96-well plates (Nunc) at 10,000 cells per well. Cells were treated two days after seeding with 100 nM thapsigargin (Tg) (Sigma-Aldrich #T9033) in the presence of different concentrations of selected compounds ranging from 0.1 nM to […]. Cells without treatment or cells treated with Tg alone were used as controls. Assay plates containing cells were incubated for 3 hours at 37° C.
Luciferase reactions were performed using Luciferase Assay System (Promega #E1501) as specified by the manufacturer. Luminescence was read with an integration time of 1 s and a gain of 110 using a Cytation-5 multi-mode microplate reader (BioTek).
(Reporter assays use an easily measured gene product as a stand-in for the process of interest.)

The subject of assay [1] is Chinese hamster ovary (CHO) cells. The assay is described as follows: Protein synthesis assay (puromycin incorporation, Western blot). Format: cell-based. The note with it: Cricetulus griseus, read-out: % Protein synthesis relative to untreated (1 μM test compound). How it is done: Chinese hamster ovary (CHO) cells were maintained at 37° C. and 5% CO2 in Dulbecco's Modified Eagle's Media (DMEM) supplemented with 10% fetal bovine serum, 2 mM L-glutamine, 100 U/ml penicillin, and 100 μg/ml streptomycin. After reaching 80% of confluence, cells were detached and seeded on 6 well plates in complete media, allowed to recover overnight and treated for 2 hours with 1 μM of the test compound (to assess protein synthesis levels in unstressed condition), or for 2 hours with 300 nM Tg in the presence of 1 μM of the test compound (to assess the recovery of protein synthesis in a stressed condition). Cells with Tg alone were used as controls.
After the 2 hours treatments, media were replaced by adding 10 μg/ml puromycin (Sigma Aldrich #P8833) in complete media for 30 min. Media were removed and cells were lysed with SDS-PAGE lysis buffer. Lysates were transferred to 1.5 ml tubes and sonicated for 3 min and total protein amount were quantified using BCA Protein Assay Kit (Pierce). Equal amount of protein (30 μg) was loaded on SDS-PAGE gels.
A HRP-conjugated secondary antibody (Rockland) was employed to detect immune-reactive bands using enhanced chemiluminescence (ECL Western Blotting Substrate, Pierce). Quantification of protein bands was done by densitometry using ImageJ software.
The percentage levels were normalized to the media alone condition, which correspond to 100% protein synthesis. […]
Background: A western blot detects proteins with antibodies after separation by electrophoresis.

[2] abbreviates: HEK293T cells carrying ATF4 luciferase reporter, 100 nM thapsigargin (Tg), 3 hours at 37° C.
Where [3] appears, read: unstressed CHO cells (without Tg), 2 hours, 1 μM test compound, media alone = 100%.

From patent US20230042881A1, “MODULATORS OF INTEGRATED STRESS RESPONSE PATHWAY” (Praxis Biotech LLC, priority 2021, published 2023) come the findings set out here.

Read-outs that look alike come from different tables or passages of the source.

In the case of `O=C(N[C@H]1CC[C@H](C(=O)Nc2nc3cc(Cl)ccc3o2)CC1)c1ccc2cc(Cl)ccc2n1` [Compound 99, 6-chloro-N-(trans-4-((5-chlorobenzo[d]oxazol-2-yl)carbamoyl)cyclohexyl)quinoline-2-carboxamide], the IC50 in the assay with ATF4 (3 h) fell in the range of 0.01 to 0.1 µM. Moreover, the activity at 1 µM in assay [1] (CHO, 2 h) turned out to be 84.8%.

Regarding `O=C(Nc1ccc2cc(Cl)ccc2n1)[C@H]1CC[C@H](NCCOc2ccc(Cl)c(F)c2)CC1` [Compound 11, trans-4-(2-(4-chloro-3-fluorophenoxy)ethylamino)-N-(6-chloroquinolin-2-yl)cyclohexane-1-carboxamide], the IC50 with ATF4 (setting [2]) fell in the range of 0.1 to 1 µM. Moreover, in assay [1] (setting [3]), the activity at 1 µM came to 150%.

Turning to `O=C(N[C@H]1CC[C@H](C(=O)NCc2cc3cc(Cl)ccc3o2)CC1)C1CNc2cc(Cl)ccc2O1` (stereo partly drawn) [Compound 49, 6-chloro-N-(trans-4-(((5-chlorobenzofuran-2-yl)methyl)carbamoyl)cyclohexyl)-3,4-dihydro-2H-benzo[b][1,4]oxazine-2-carboxamide], in the assay on ATF4 (setting [2]), the IC50 was in the range of 0.01 to 0.1 µM. In assay [1] (setting [3]), the activity at 1 µM was 122%.

For the compound `O=C(CO[C@H]1C[C@@H](OC(F)(F)F)C1)N[C@H]1CC[C@H](C(=O)Nc2ccc3cc(Cl)ccc3n2)CC1` [Compound 24, trans-N-(6-chloroquinolin-2-yl)-4-(2-(cis-3-(trifluoromethoxy)cyclobutoxy)acetamido)cyclohexanecarboxamide], the IC50 in the assay on ATF4 (setting [2]) is below 0.01 µM. Further, in assay [1] (setting [3]), the activity at 1 µM came out at 99.3%.

Take `O=C(NN1CCC(C(=O)NCc2cc3cc(Cl)ccc3o2)CC1)c1cc2cc(Cl)ccc2o1` [Compound 48, 1-(5-chlorobenzofuran-2-carboxamido)-N-((5-chlorobenzofuran-2-yl)methyl)piperidine-4-carboxamide]: the IC50 in the assay on ATF4 (setting [2]) was below 0.01 µM. The activity at 1 µM in assay [1] (setting [3]) was 109%.

As for `O=C(Nc1ccc2cc(Cl)ccc2n1)[C@H]1CC[C@H](C(=O)Nc2ccc3cc(Cl)ccc3n2)CC1` [Compound 17, trans-N^1,N^4-bis(6-chloroquinolin-2-yl)cyclohexane-1,4-dicarboxamide], in the assay on ATF4 (setting [2]), the IC50 is 0.01 to 0.1 µM. Moreover, the activity at 1 µM in assay [1] (setting [3]) turned out to be 110%.

As for `O=C(COc1ccc(Cl)cc1)N[C@H]1CC[C@H](C(=O)Nc2ccc3cc(Cl)ccc3n2)CC1` [Compound 1, trans-4-(2-(4-chlorophenoxy)acetamido)-N-(6-chloroquinolin-2-yl)cyclohexane-1-carboxamide], the IC50 with ATF4 (3 h) was below 0.01 µM. Also, the activity at 1 µM in assay [1] (CHO, 2 h) was found to be 91.8%.

As for `O=C(COc1ccc(Cl)c(F)c1)N[C@H]1CC[C@H](C(=O)NCc2ccc3cc(Cl)ccc3n2)CC1` [Compound 22, trans-4-(2-(4-chloro-3-fluorophenoxy)acetamido)-N-((6-chloroquinolin-2-yl)methyl)cyclohexanecarboxamide], the IC50 in the assay on ATF4 (setting [2]) was in the range of 0.01 to 0.1 µM. In assay [1] (setting [3]), the activity at 1 µM is 100%.

Turning to `O=C(COc1ccc(Cl)c(F)c1)NC1CCN(C(=O)Nc2ccc3cc(Cl)ccc3n2)CC1` [Compound 15, 4-(2-(4-chloro-3-fluorophenoxy)acetamido)-N-(6-chloroquinolin-2-yl)piperidine-1-carboxamide], in the assay on ATF4 (setting [2]), the IC50 is 0.01 to 0.1 µM. Further, the activity at 1 µM in assay [1] (setting [3]) was found to be 177%.

For the compound `O=C(NN1CCC(C(=O)Nc2ccc3cc(Cl)ccc3n2)CC1)c1cc2cc(Cl)ccc2o1` [Compound 12, 1-(5-chlorobenzofuran-2-carboxamido)-N-(6-chloroquinolin-2-yl)piperidine-4-carboxamide], in the assay with ATF4 (setting [2]), the IC50 was below 0.01 µM. Moreover, in assay [1] (setting [3]), the activity at 1 µM stood at 121%.

For the compound `O=C(NN1CCC(C(=O)Nc2nc3cc(Cl)ccc3o2)CC1)c1ccc2cc(Cl)ccc2n1` [Compound 100, 6-chloro-N-(4-(5-chlorobenzo[d]oxazol-2-ylcarbamoyl)piperidin-1-yl)quinoline-2-carboxamide], the IC50 in the assay with ATF4 (3 h) is 0.01 to 0.1 µM. Moreover, the activity at 1 µM in assay [1] (CHO, 2 h) was found to be 128%.

Regarding `O=C(COc1ccc(Cl)cc1)NN1CCC(C(=O)Nc2ccc3cc(Cl)ccc3n2)CC1` [Compound 18, 1-(2-(4-chlorophenoxy)acetamido)-N-(6-chloroquinolin-2-yl)piperidine-4-carboxamide], in the assay with ATF4 (setting [2]), the IC50 was below 0.01 µM. Besides, the activity at 1 µM in assay [1] (setting [3]) turned out to be 75.6%.

For the compound `O=C(NN1CCC(C(=O)Nc2nc3cc(Cl)ccc3s2)CC1)c1ccc2cc(Cl)ccc2n1` [Compound 119, 6-chloro-N-(4-(5-chlorobenzo[d]thiazol-2-ylcarbamoyl)piperidin-1-yl)quinoline-2-carboxamide], the IC50 in the assay with ATF4 (setting [2]) was below 0.01 µM. Moreover, the activity at 1 µM in assay [1] (setting [3]) turned out to be 118%.

`O=C(N[C@H]1CC[C@H](C(=O)Nc2nc3cc(Cl)ccc3s2)CC1)c1ccc2cc(Cl)ccc2n1` [Compound 118, 6-chloro-N-(trans-4-(5-chlorobenzo[d]thiazol-2-ylcarbamoyl)cyclohexyl)quinoline-2-carboxamide]: the IC50 in the assay with ATF4 (setting [2]) is below 0.01 µM. Besides, the activity at 1 µM in assay [1] (setting [3]) came to 109%.

For `O=C(N[C@H]1CC[C@H](C(=O)Nc2ccc3cc(Cl)ccc3n2)CC1)[C@@H]1CNc2cc(Cl)ccc2O1` [Compound 7, trans-(S)-6-chloro-N-(4-((6-chloroquinolin-2-yl)carbamoyl)cyclohexyl)-3,4-dihydro-2H-benzo[b][1,4]oxazine-2-carboxamide], the IC50 with ATF4 (setting [2]) is below 0.01 µM. Also, in assay [1] (setting [3]), the activity at 1 µM came to 115%.

On to `O=C(NCc1cc2cc(Cl)ccc2o1)C1CCN(NC(=O)C2CNc3cc(Cl)ccc3O2)CC1` (stereo not shown) [Compound 50, 6-chloro-N-(4-(((5-chlorobenzofuran-2-yl)methyl)carbamoyl)piperidin-1-yl)-3,4-dihydro-2H-benzo[b][1,4]oxazine-2-carboxamide], for which, in the assay on ATF4 (setting [2]), the IC50 fell in the range of 0.01 to 0.1 µM. Also, the activity at 1 µM in assay [1] (setting [3]) turned out to be 85.1%.

Take `O=C(N[C@H]1CC[C@H](C(=O)Nc2ccc3cc(Cl)ccc3n2)CC1)c1cc2cc(Cl)ccc2o1` [Compound 4, trans-5-chloro-N-(4-((6-chloroquinolin-2-yl)carbamoyl)cyclohexyl)benzofuran-2-carboxamide]: the IC50 in the assay with ATF4 (setting [2]) was below 0.01 µM. Also, in assay [1] (setting [3]), the activity at 1 µM turned out to be 204%.

Take `O=C(Nc1ccc2cc(Cl)ccc2n1)C1CCN(C[C@H](O)COc2ccc(Cl)c(F)c2)CC1` [Compound 9, (S)-1-(3-(4-chloro-3-fluorophenoxy)-2-hydroxypropyl)-N-(6-chloroquinolin-2-yl)piperidine-4-carboxamide]: in the assay on ATF4 (setting [2]), the IC50 was 0.1 to 1 µM. For the same compound, the activity at 1 µM in assay [1] (setting [3]) is 156%.

With `O=C(Nc1ccc2cc(Cl)ccc2n1)C1CCN(NC(=O)[C@H]2C[C@@H](O)c3cc(Cl)ccc3O2)CC1` [Compound 124, 1-((2R,4R)-6-chloro-4-hydroxychroman-2-carboxamido)-N-(6-chloroquinolin-2-yl)piperidine-4-carboxamide], in the assay with ATF4 (setting [2]), the IC50 was below 0.01 µM. In addition, in assay [1] (setting [3]), the activity at 1 µM worked out at 183%.

As to `O=C(COc1ccc(Cl)c(F)c1)N[C@H]1CC[C@H](C(=O)Nc2ccc3cc(Cl)ccc3n2)CC1` [Compound 3, trans-4-(2-(4-chloro-3-fluorophenoxy)acetamido)-N-(6-chloroquinolin-2-yl)cyclohexane-1-carboxamide], the IC50 in the assay on ATF4 (setting [2]) was below 0.01 µM. Moreover, the activity at 1 µM in assay [1] (setting [3]) came to 188%.

Turning to `O=C(N[C@H]1CC[C@H](C(=O)NCC2CNc3cc(Cl)ccc3O2)CC1)c1cc2cc(Cl)ccc2o1` (stereo partly drawn) [Compound 75, 5-chloro-N-(trans-4-(((6-chloro-3,4-dihydro-2H-benzo[b][1,4]oxazin-2-yl)methyl)carbamoyl)cyclohexyl)benzofuran-2-carboxamide], the IC50 in the assay with ATF4 (setting [2]) is below 0.01 µM. The activity at 1 µM in assay [1] (setting [3]) worked out at 114%.

On to `O=C(Nc1ccc2cc(Cl)ccc2n1)[C@H]1CC[C@H](C(=O)N[C@H]2C[C@@H](OC(F)(F)F)C2)CC1` [Compound 31, trans-N1-(6-chloroquinolin-2-yl)-N4-(cis-3-(trifluoromethoxy)cyclobutyl)cyclohexane-1,4-dicarboxamide], for which, in the assay on ATF4 (setting [2]), the IC50 is 0.01 to 0.1 µM. Also, in assay [1] (setting [3]), the activity at 1 µM worked out at 88.3%.

Regarding `O=C(NN1CCC(C(=O)NCC2CNc3cc(Cl)ccc3O2)CC1)c1ccc2cc(Cl)ccc2n1` (stereo not shown) [Compound 72, 6-chloro-N-(4-(((6-chloro-3,4-dihydro-2H-benzo[b][1,4]oxazin-2-yl)methyl)carbamoyl)piperidin-1-yl)quinoline-2-carboxamide], the IC50 in the assay on ATF4 (setting [2]) is below 0.01 µM. In addition, the activity at 1 µM in assay [1] (setting [3]) is 92.2%.
